This passage reports IC50 results from patent US20260234164A1, “BIPHENYL COMPOUND AS IMMUNOMODULATOR, PREPARATION METHOD THEREFOR AND USE THEREOF” (SHENZHEN CHIPSCREEN BIOSCIENCES CO., LTD., priority 2021, published 2026).

The target of one experiment is T1, PD-1/PD-L1 binding (Homo sapiens, UniProt Q9NZQ7).
T1 construct: purchased Sino Biological Inc. 10084-H02H-100 (PD-L1-Fc); 10377-H08H-50 (His-PD-1)
Briefly: HTRF inhibition of PD-1/PD-L1 binding in vitro. The following applies: His-PD-1 100 nM, PD-L1-Fc 2 nM, read-out: IC50 inhibiting PD-1/PD-L1 binding in vitro. The text has this:
Homogeneous Time-Resolved Fluorescence (HTRF): This method used the recombinant human PD-L1 protein fused to express the hFc tag and the recombinant human PD-1 protein fused to express the His tag, both of which were interacting ligands and receptors. When the anti-hFc antibody containing Eu element chelation marker and the anti-His antibody labeled with XL665 fluorescein were bound with the above two corresponding labels, and excited by a laser with a wavelength of 320 nm, the ligand-receptor binding enabled the energy to be transferred from the Eu element to the XL665 fluorescein, which was excited to emit light at a wavelength of 665 nm. However, when an inhibitor of the interaction between PD-L1 and PD-1 was added, the binding of the ligand to the receptor was destroyed, so that the distance between Eu and XL665 was far away, the energy cannot be transferred, and XL665 would not be excited.
Recombinant human PD-1 protein with His tag (His-PD-1 protein, Cat #: 10377-H08H-50), and recombinant human PD-L1-Fc fusion protein (PD-L1-Fc fusion protein, Cat #: 10084-H02H-100) were purchased from Sino Biological Inc., […] and anti-His-XL665 antibody were purchased from Cisbio Company, and other related reagents such as dilution buffer (Diluent buffer 5, Cat #: 62DL5DDC), detection buffer (PPI-Europium detection buffer, Cat #: 61DB9RDF) were purchased from Cisbio Company. Fluorescence detection instrument Tecan (Spark 10 M) was purchased from Switzerland Tecan Company.
(1) Experimental preparation: The test compound was diluted with dilution buffer into different concentration gradients (the highest final concentration in 20 μL final reaction system was 10 μM), His-PD-1 protein was diluted to 800 nM (the final concentration in 20 μL final reaction system was 100 nM), and the PD-L1-Fc fusion protein was diluted to 16 nM (final concentration was 2 nM). The anti-His-XL665 antibody and anti-hFc-Eu^3+ antibody were respectively diluted 20 times and 100 times using the detection buffer according to the reagent requirements.
(2) 5 μL of test compound, 2.5 μL of PD-L1-Fc fusion protein and 2.5 μL of His-PD-1 protein solution were mixed, and incubated at room temperature for 15 min. Then the system was added with 5 μL of anti-His-XL665 antibody and 5 μL of anti-hFc-Eu^3+ antibody, incubated for another 3 h, and then detected.
(3) When detecting the reaction, a control group was also provided, including a 0% inhibition positive control without adding test compounds and a 100% inhibition negative control without adding PD-1 protein. All detections were performed with duplicates.
(4) The fluorescence signal of each well was measured using a fluorescence detector Tecan (Spark 10M) at an excitation wavelength of 320 nm, and emission wavelengths of 620 nm and 665 nm, respectively. The intensity of the mutual binding of PD-1 and PD-L1 referred to the ratio of fluorescence signals Em665/Em620.
(5) The binding inhibition rate of the test compound was calculated as follows: Inhibition rate (%)=[1−(Fluorescence signal ratio of detection well-fluorescence signal ratio of 100% inhibition negative control)]/(fluorescence signal ratio of 0% inhibition positive control-fluorescence signal ratio of 100% inhibition negative control)×100%. After calculating the inhibition rate on PD-1/PD-L1 binding of the test compounds with different concentration gradients, the 50% inhibitory concentration (IC50) was calculated.

The target of the next experiment is T2, CD80/PD-L1 binding (Homo sapiens, UniProt Q9NZQ7).
T2 construct: purchased Sino Biological Inc. 10084-H02H-100 (PD-L1-Fc); 10698-H08H-100 (His-CD80)
As to the kind of experiment: HTRF inhibition of CD80/PD-L1 binding in vitro. The following applies: His-CD80 100 nM, PD-L1-Fc 2 nM, read-out: IC50 inhibiting CD80/PD-L1 binding in vitro. From the text:
In addition to PD-1, PD-L1 can also exert immunosuppressive activity by binding to CD80. Similarly, in vitro experiments of binding or binding inhibition of CD80 and PD-L1 can also be measured by homogeneous time-resolved fluorescence (HTRF). When the anti-hFc-Eu^3+ antibody and anti-His-XL665 antibody were bound to the hFC tag fused to PD-L1 and the His tag fused to CD80 respectively, and excited with a 320 nm wavelength laser, the binding of PD-L1 and CD80 enabled energy to be transferred from the Eu element to the XL665 fluorescein, which was excited to emit light. When the inhibitor of the interaction between PD-L1 and CD80 was added, the combination of the two was destroyed, so that the distance between Eu and XL665 was far away, the energy cannot be transferred, and XL665 would not be excited.
Recombinant human CD80 protein with His tag (His-CD80 protein, Cat #: 10698-H08H-100), and recombinant human PD-L1-Fc fusion protein (PD-L1-Fc fusion protein, Cat #: 10084-H02H-100) were purchased from Sino Biological Inc., anti-hFc-Eu^3+ antibody and anti-His-XL665 antibody were purchased from Cisbio Company, and other related reagents such as dilution buffer (Diluent buffer 5, Cat #: 62DL5DDC), detection buffer (PPI-Europium detection buffer, Cat #: 61DB9RDF) were purchased from Cisbio Company. Fluorescence detection instrument Tecan (Spark 10 M) was purchased from Switzerland Tecan Company.
(1) Experimental preparation: The test compound was diluted with dilution buffer into different concentration gradients (the highest final concentration in 20 μL final reaction system was 10 μM), His-CD80 protein was diluted to 800 nM (the final concentration in 20 μL final reaction system was 100 nM), and the PD-L1-Fc fusion protein was diluted to 16 nM (final concentration was 2 nM). The anti-His-XL665 antibody and anti-hFc-Eu^3+ antibody were respectively diluted 20 times and 100 times using the detection buffer according to the reagent requirements.
(2) 5 μL of test compound, 2.5 μL of Hid-CD80 protein and 2.5 μL of […] solution were mixed, and incubated at room temperature for 15 min. Then the system was added with 5 μL of anti-His-XL665 antibody and 5 μL of anti-hFc-Eu^3+ antibody, incubated for another 3 h, and then detected.
(3) When detecting the reaction, a control group was provided, including a 0% inhibition positive control without adding test compounds and a 100% inhibition negative control without adding CD-80 protein. All detections were performed with duplicates.
(4) The fluorescence signal of each well was measured using a fluorescence detector Tecan (Spark 10M) at an excitation wavelength of 320 nm, and emission wavelengths of 620 nm and 665 nm, respectively. The intensity of the mutual binding of CD80 and PD-L1 referred to the ratio of fluorescence signals Em665/Em620.
(5) The binding inhibition rate of the test compound was calculated as follows: Inhibition rate (%)=[1−(Fluorescence signal ratio of detection well-fluorescence signal ratio of 100% inhibition negative control)]/(fluorescence signal ratio of 0% inhibition positive control-fluorescence signal ratio of 100% inhibition negative control)×100%. After calculating the inhibition rate on CD80/PD-L1 binding of the test compounds with different concentration gradients, the 50% inhibitory concentration (IC50) was calculated.

T2 sequence (Q9NZQ7 19-239 limits assumed): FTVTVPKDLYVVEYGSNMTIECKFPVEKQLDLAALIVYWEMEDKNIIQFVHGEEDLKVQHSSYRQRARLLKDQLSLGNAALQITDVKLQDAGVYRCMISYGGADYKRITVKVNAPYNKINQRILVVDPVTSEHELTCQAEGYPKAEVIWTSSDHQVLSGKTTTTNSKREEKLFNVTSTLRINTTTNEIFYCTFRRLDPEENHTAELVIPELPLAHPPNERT
T1 sequence (Q9NZQ7 19-239 limits assumed): as above

Regarding `[2H]C([2H])([2H])OCC12CCC(CCN3CCc4c(nc(C(=O)Nc5cccc(-c6cccc(NC(=O)c7nc8c(n7C)CCN(CCC79CCC(C(=O)O)(CC7)C9)C8)c6Cl)c5C)n4C)C3)(CC1)C2` [Compound I-4, 4-(2-(2-((2-chloro-3′-(5-(2-(4-((methoxy-d3)methyl)bicyclo[2.2.1]heptane-1-yl)ethyl)-1-methyl-4,5,6,7-tetrahydro-1H-imidazo[4,5-c]pyridine-2-carboxamido)-2′-methyl-[1,1′-biphenyl]-3-yl)carbamoyl)-1-methyl-1,4,6,7-tetrahydro-5H-imidazo[4,5-c]pyridin-5-yl)ethyl)bicyclo[2.2.1]heptane-1-carboxylic acid], the IC50 stood at 2.8 nM on PD-1/PD-L1 binding and 1.75 nM on CD80/PD-L1 binding.
In the same order, the values of `[2H]C([2H])([2H])OCC12CCC(CCN3CCc4c(nc(C(=O)Nc5cccc(-c6cccc(NC(=O)c7nc8c(n7C([2H])([2H])[2H])CCN(CCC79CCC(C(=O)O)(CC7)C9)C8)c6Cl)c5Cl)n4C([2H])([2H])[2H])C3)(CC1)C2` [Compound I-5, 4-(2-(2-((2,2′-dichloro-3′-(5-(2-(4-((methoxy-d3)methyl)bicyclo[2.2.1]heptane-1-yl)ethyl)-1-(methyl-d3)-4,5,6,7-tetrahydro-1H-imidazo[4,5-c]pyridine-2-carboxamido)-[1,1′-biphenyl]-3-yl)carbamoyl)-1-(methyl-d3)-1,4,6,7-tetrahydro-5H-imidazo[4,5-c]pyridin-5-yl)ethyl)bicyclo[2.2.1]heptane-1-carboxylic acid] are 1.02 nM and 1.12 nM.
With `[2H]C([2H])([2H])n1c(C(=O)Nc2cccc(-c3cccc(NC(=O)c4nc5c(n4C([2H])([2H])[2H])CCN(CCC46CCC(C(=O)O)(CC4)C6)C5)c3Cl)c2Cl)nc2c1CCN(CCC13CCC(COC)(CC1)C3)C2` [Compound I-6, 4-(2-(2-((2,2′-dichloro-3′-(5-(2-(4-((methoxy)methyl)bicyclo[2.2.1]heptane-1-yl)ethyl)-1-(methyl-d3)-4,5,6,7-tetrahydro-1H-imidazo[4,5-c]pyridine-2-carboxamido)-[1,1′-biphenyl]-3-yl)carbamoyl)-1-(methyl-d3)-1,4,6,7-tetrahydro-5H-imidazo[4,5-c]pyridin-5-yl)ethyl)bicyclo[2.2.1]heptane-1-carboxylic acid], the IC50 was found to be 1 nM on PD-1/PD-L1 binding and 0.95 nM on CD80/PD-L1 binding.
For `[2H]C([2H])([2H])OCC12CCC(CCN3CCc4c(nc(C(=O)Nc5cccc(-c6cccc(NC(=O)c7nc8c(n7C([2H])([2H])[2H])CCN(CCC79CCC(C(=O)O)(CC7)C9)C8)c6Cl)c5C)n4C([2H])([2H])[2H])C3)(CC1)C2` [Compound I-9, 4-(2-(2-((2-chloro-3′-(5-(2-(4-((methoxy-d3)methyl)bicyclo[2.2.1]heptane-1-yl)ethyl)-1-(methyl-d3)-4,5,6,7-tetrahydro-1H-imidazo[4,5-c]pyridine-2-carboxamido)-2′-methyl-[1,1′-biphenyl]-3-yl)carbamoyl)-1-(methyl-d3)-1,4,6,7-tetrahydro-5H-imidazo[4,5-c]pyridin-5-yl)ethyl)bicyclo[2.2.1]heptane-1-carboxylic acid] the same measures were 3.77 nM and 3.42 nM.
Take `[2H]C([2H])([2H])n1c(C(=O)Nc2cccc(-c3cccc(NC(=O)c4nc5c(n4C([2H])([2H])[2H])CCN(CCC46CCC(C(=O)O)(CC4)C6)C5)c3Cl)c2C)nc2c1CCN(CCC13CCC(COC)(CC1)C3)C2` [Compound I-10, 4-(2-(2-((2-chloro-3′-(5-(2-(4-(methoxymethyl)bicyclo[2.2.1]heptane-1-yl)ethyl)-1-(methyl-d3)-4,5,6,7-tetrahydro-1H-imidazo[4,5-c]pyridine-2-carboxamido)-2′-methyl-[1,1′-biphenyl]-3-yl)carbamoyl)-1-(methyl-d3)-1,4,6,7-tetrahydro-5H-imidazo[4,5-c]pyridin-5-yl)ethyl)bicyclo[2.2.1]heptane-1-carboxylic acid]: the IC50 worked out at 3.59 nM at PD-1/PD-L1 binding and 4.26 nM at CD80/PD-L1 binding.
Turning to `[2H]C([2H])([2H])OCC12CCC(CCN3CCc4c(nc(C(=O)Nc5cccc(-c6cccc(NC(=O)c7nc8c(n7C([2H])([2H])[2H])CCN(CCC79CCC(C(=O)O)(CC7)C9)C8)c6C)c5Cl)n4C([2H])([2H])[2H])C3)(CC1)C2` [Compound I-11, 4-(2-(2-((2′-chloro-3′-(5-(2-(4-((methoxy-d3)methyl)bicyclo[2.2.1]heptane-1-yl)ethyl)-1-(methyl-d3)-4,5,6,7-tetrahydro-1H-imidazo[4,5-c]pyridine-2-carboxamido)-2-methyl-[1,1′-biphenyl]-3-yl)carbamoyl)-1-(methyl-d3)-1,4,6,7-tetrahydro-5H-imidazo[4,5-c]pyridin-5-yl)ethyl)bicyclo[2.2.1]heptane-1-carboxylic acid], the IC50 worked out at 4.21 nM at PD-1/PD-L1 binding and 3.21 nM at CD80/PD-L1 binding.
